The record followed here is ChEMBL document CHEMBL1201862, “PubChem BioAssay data set” (2004).

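Cells were grown in 96-well plates and exposed to each compound for 48 hours at five concentrations; endpoints were interpolated linearly between bracketing concentrations, or set to the highest concentration if not reached. GI50 = concentration required for 50% inhibition of growth.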 Active and inactive are the calls of the source. Rule as the data show it: active = GI50 up to about 1.1 µM and inactive = higher. Where only a bound is given, the exact number is not on record here.

Holding throughout (experiment): NCI-60 cell line screen, 48 h
Test [1] relates to SK-MEL-5.
Test [2] concerns A549.
Test [3] relates to NCI-H226.
In test [4] the test system is EKVX.
Test [5] concerns SNB-19.
In test [6] the test system is LOX IMVI.
For test [7], the system named is SK-MEL-2.
The subject of test [8] is RXF 393.
The test system of test [9] is NCI-H522.
Test [10] deals with CCRF-CEM.
Test [11] has as its system KM12.
For test [12], the system named is SNB-75.
The test system of test [13] is K562.
The subject of test [14] is NCI-H23.
The test system of test [15] is TK-10.
Test [16] concerns HCT-15.
The test system of test [17] is MCF7.
The test system of test [18] is MDA-MB-435.
The test system of test [19] is Hs-578T.

Take `CCOC(=O)C1=C(O)C(=O)c2ccoc2C1=O`: the GI50 in [1], in test [2], in test [3], in test [4], in test [5] and in test [6] was > 100 µM (inactive) throughout. Besides, the GI50 in [7], in [8], in [9], in [10], in test [11] and in [12] was > 100 µM (inactive) throughout. Besides, the GI50 was > 100 µM (inactive) in [13], > 100 µM (inactive) in test [14], > 100 µM (inactive) in test [15] and greater than 100 µM in test [16].

Turning to `N#CCCN(CCC#N)c1ccc(/C=C(/NC(=O)c2cc([N+](=O)[O-])ccc2Cl)C(=O)NN)cc1`, the GI50 was > 100 µM (inactive) in test [1]; > 100 µM (inactive) in test [2]; > 100 µM (inactive) in [3]; > 100 µM (inactive) in [4]; > 100 µM (inactive) in test [5]; 41.4 µM (inactive) in test [6]. Moreover, the GI50 in test [7] is > 100 µM (inactive); in [8] it was > 100 µM (inactive); in test [9] it was > 100 µM (inactive); in test [10] it was 47.5 µM (inactive); in test [11], > 100 µM (inactive); in [12], > 100 µM (inactive). For the same molecule, the GI50 in [13] is > 100 µM (inactive); in test [14], > 100 µM (inactive); in test [15] it was > 100 µM (inactive); in [16] it was greater than 100 µM.

`COc1cc2ccc(/C(C)=N/OC(C)=O)cc2cc1OC`: the GI50 in test [2] was > 100 µM (inactive); in [3], 53.6 µM (inactive); in test [4] it was 3.58 µM (inactive); in test [5], > 100 µM (inactive); in [6], > 100 µM (inactive); in [7], 81.3 µM (inactive). Moreover, the GI50 in test [8] is 25.4 µM (inactive); in test [9], 22.4 µM (inactive); in test [10], 66.5 µM (inactive); in [11] it was > 100 µM (inactive); in test [12], 5.81 µM (inactive); in test [13] it was 94 µM (inactive). The GI50 was > 100 µM (inactive) in test [14], 44.8 µM (inactive) in [15] and greater than 100 µM in test [16].

For `CC(=O)OCC1OC(n2c(=S)n(-c3ccccc3)c(=O)c3cc(Br)ccc32)C(OC(C)=O)C1OC(C)=O` (stereo unspecified), the GI50 in test [1], in test [2], in [3], in [4], in test [5] and in test [6] was > 100 µM (inactive) throughout. Besides, the GI50 in test [7] is > 100 µM (inactive); in test [8] it was > 100 µM (inactive); in test [9], > 100 µM (inactive); in test [11], > 100 µM (inactive); in test [12], 83.9 µM (inactive); in test [14], > 100 µM (inactive). Also, the GI50 in test [16] is greater than 100 µM.

As to `C=CCC1(CN(C)C)CC/C(=C\c2ccc(OC)cc2)C1=O` (stereo unspecified), the GI50 in [1] was 41.5 µM (inactive); in [2], > 100 µM (inactive); in test [3] it was > 100 µM (inactive); in [4], 20.3 µM (inactive); in test [5], > 100 µM (inactive); in test [6], > 100 µM (inactive). In addition, the GI50 is > 100 µM (inactive) in test [7]; > 100 µM (inactive) in test [8]; 25.8 µM (inactive) in test [9]; 34.8 µM (inactive) in test [10]; 74.3 µM (inactive) in [11]; > 100 µM (inactive) in test [12]. Further, the GI50 in test [13] was 32.9 µM (inactive); in [14], 81.7 µM (inactive); in [15], > 100 µM (inactive); in [16], 52 µM.

Regarding `c1ccc(C2SCc3nc4ccccc4n32)cc1` (stereo unspecified), the GI50 in test [1] was 18.6 µM (inactive); in test [2], 50.1 µM (inactive); in [3] it was 17.8 µM (inactive); in test [4] it was 39.4 µM (inactive); in test [5], 32.2 µM (inactive); in [6], 39.9 µM (inactive). The GI50 in [7] was 29.6 µM (inactive); in test [8], 53.2 µM (inactive); in test [9], 18.9 µM (inactive); in [10] it was 76.2 µM (inactive); in test [11] it was 32.4 µM (inactive); in test [12], 3.14 µM (inactive). Also, the GI50 is 32.8 µM (inactive) in [13], 31.5 µM (inactive) in [14], 52.4 µM (inactive) in [15] and 44.4 µM in [16].

`Clc1ccc(-c2c(C3=NCCN3)nnn2-c2ccccc2)cc1`: the GI50 in [1] was 97.1 µM (inactive); in test [2], > 100 µM (inactive); in test [3], > 100 µM (inactive); in [4] it was > 100 µM (inactive); in [5], > 100 µM (inactive); in [6], > 100 µM (inactive). Besides, the GI50 in test [7] was 51.2 µM (inactive); in [8] it was > 100 µM (inactive); in [9] it was > 100 µM (inactive); in [10] it was > 100 µM (inactive); in test [11] it was > 100 µM (inactive); in test [12] it was > 100 µM (inactive). The GI50 in test [13] was 61.1 µM (inactive); in test [14], > 100 µM (inactive); in test [15], 51.8 µM (inactive); in test [16], greater than 100 µM.

As for `COc1ccccc1C1c2cc3c(cc2OC(N2CCCC2)C1C)OCO3` (stereo unspecified), the GI50 is 14.5 µM (inactive) in test [1]; 18.4 µM (inactive) in [2]; 18.3 µM (inactive) in [4]; 17.9 µM (inactive) in [5]; 16.9 µM (inactive) in test [6]; 14.8 µM (inactive) in test [7]. Besides, the GI50 was 3.76 µM (inactive) in test [8]; 9.95 µM (inactive) in test [9]; 18.9 µM (inactive) in test [17]; 19.5 µM (inactive) in test [10]; 19.3 µM (inactive) in [11]; 12.4 µM (inactive) in test [18]. Also, the GI50 in test [12] was 12.9 µM (inactive); in test [13], 15.1 µM (inactive); in [14], 18.3 µM (inactive); in test [15] it was 18.5 µM (inactive); in test [19] it was 7.48 µM (inactive); in test [16], 17.2 µM.

Take `CCC(=O)CCC1=Nc2nnc(CCCCc3nnc4n3C(=O)C(CCC(=O)CC)=N4)n2C1=O`: the GI50 in test [2], in test [3], in [4], in test [5], in [6] and in [7] was > 100 µM (inactive) in each case. For the same molecule, the GI50 in test [8], in [9], in test [10], in test [11], in test [12] and in [13] was > 100 µM (inactive) in each case. The GI50 in test [14] was > 100 µM (inactive); in test [15] it was > 100 µM (inactive); in [16] it was greater than 100 µM.

For `COC(C(=O)NN)c1ccccc1` (stereo unspecified), the GI50 in test [1], in test [2], in [3], in test [4], in test [5] and in test [7] was > 100 µM (inactive) in each case. Also, the GI50 was > 100 µM (inactive) in [8]; > 100 µM (inactive) in test [9]; > 100 µM (inactive) in test [17]; > 100 µM (inactive) in [11]; > 100 µM (inactive) in test [18]; 27.8 µM (inactive) in test [12]. Further, the GI50 in [13] was > 100 µM (inactive); in [14], > 100 µM (inactive); in [15], > 100 µM (inactive); in test [19], > 100 µM (inactive); in [16], greater than 100 µM.

For the molecule `O=C1C=C(N2CCCC2)C=C(N2CCCC2)C1`, the GI50 in [1], in [2], in [3], in [4], in [5] and in [6] was > 100 µM (inactive) throughout. For the same molecule, the GI50 is > 100 µM (inactive) in test [7]; > 100 µM (inactive) in test [8]; > 100 µM (inactive) in [9]; > 100 µM (inactive) in test [10]; > 100 µM (inactive) in test [11]; 85.1 µM (inactive) in test [12]. Further, the GI50 in test [13] is > 100 µM (inactive); in [14], > 100 µM (inactive); in [15], > 100 µM (inactive); in [16], greater than 100 µM.

Consider `c1ccc(/N=C(/Nc2ccccc2)N2CCCC2)cc1`, for which the GI50 in test [1], in test [2], in test [3], in test [4], in test [5] and in [6] was > 100 µM (inactive) in each case. Further, the GI50 in test [7], in test [9], in test [17], in [10], in [11] and in test [18] was > 100 µM (inactive) throughout. The GI50 was > 100 µM (inactive) in test [12]; > 100 µM (inactive) in test [13]; > 100 µM (inactive) in test [14]; > 100 µM (inactive) in test [15]; > 100 µM (inactive) in [19]; greater than 100 µM in [16].

`Cc1nc2c(sc(=S)n2-c2ccccc2)c2nc3ccccc3n12`: the GI50 in test [3], in test [4], in test [5], in [6], in [7] and in [8] was > 100 µM (inactive) throughout. Further, the GI50 in [9], in test [10], in [11], in test [12], in [13] and in test [14] was > 100 µM (inactive) throughout. The GI50 is > 100 µM (inactive) in [15] and greater than 100 µM in test [16].
